Experimental data: patent US9434711B2 (Janssen Pharmaceutica, NV, priority 2007, dated 2016)

Biological target: canine TRPM8 (Canis lupus familiaris, UniProt Q1A7N1)
Assay: In Vitro Canine TRPM8 Functional Assay (Ca2+ fluorescence, icilin activation)
Assay type: cell-based
Conditions: for IC50: HEK293 cells stably expressing canine TRPM8, icilin activation, eight-point dose-response, read-out: IC50; for inhibition at 0.2 µM / % Inh @ 0.2 (μM): compound at 0.2 μM, canine TRPM8, icilin activation; for inhibition at 0.2 µM: read-out: % Inh @ 0.2
Method in brief: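 Eight-point dose-response curves, each point averaging quadruplicate wells, gave EC50 or IC50. Canine TRPM8-expressing HEK293 cells, dye-loaded (Calcium 3), were pre-exposed 5 min to compound, then challenged with icilin at roughly EC80; intracellular Ca2+ read by FLIPR or FDSS fluorescence.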

Chain of canine TRPM8 (Q1A7N1 1-1104): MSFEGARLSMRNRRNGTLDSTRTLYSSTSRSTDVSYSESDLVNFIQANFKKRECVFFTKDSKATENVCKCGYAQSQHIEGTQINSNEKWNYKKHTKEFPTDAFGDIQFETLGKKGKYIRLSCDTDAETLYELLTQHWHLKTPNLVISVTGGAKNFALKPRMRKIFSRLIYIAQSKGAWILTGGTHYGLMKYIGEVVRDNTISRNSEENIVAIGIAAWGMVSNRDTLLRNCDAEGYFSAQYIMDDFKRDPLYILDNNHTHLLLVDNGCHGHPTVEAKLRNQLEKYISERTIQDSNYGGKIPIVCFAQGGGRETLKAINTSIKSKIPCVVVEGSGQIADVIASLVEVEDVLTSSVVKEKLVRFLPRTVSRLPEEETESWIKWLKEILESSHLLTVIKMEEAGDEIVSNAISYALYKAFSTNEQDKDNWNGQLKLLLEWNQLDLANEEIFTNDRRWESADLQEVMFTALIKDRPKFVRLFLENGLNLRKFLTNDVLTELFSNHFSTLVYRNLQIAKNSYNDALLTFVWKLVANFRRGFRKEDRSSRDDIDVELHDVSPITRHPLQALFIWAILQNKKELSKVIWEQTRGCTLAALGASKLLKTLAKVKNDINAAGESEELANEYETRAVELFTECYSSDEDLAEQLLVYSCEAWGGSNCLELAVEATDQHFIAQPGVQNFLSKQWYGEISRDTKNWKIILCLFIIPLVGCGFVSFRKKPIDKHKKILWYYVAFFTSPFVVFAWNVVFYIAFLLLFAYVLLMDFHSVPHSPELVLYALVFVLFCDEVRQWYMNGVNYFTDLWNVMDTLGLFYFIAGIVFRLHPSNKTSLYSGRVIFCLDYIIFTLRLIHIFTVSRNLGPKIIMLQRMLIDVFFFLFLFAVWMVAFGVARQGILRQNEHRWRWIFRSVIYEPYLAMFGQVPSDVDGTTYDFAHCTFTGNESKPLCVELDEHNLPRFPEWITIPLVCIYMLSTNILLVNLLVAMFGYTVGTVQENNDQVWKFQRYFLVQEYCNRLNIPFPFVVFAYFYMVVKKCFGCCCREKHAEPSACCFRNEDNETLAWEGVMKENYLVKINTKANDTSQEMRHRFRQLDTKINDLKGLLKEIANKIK

Row | IC50 | inhibition at 0.2 µM | Compound | % Inh @ 0.2 (μM)
1 | 7.4 nM | 101% | O=S(=O)(c1ccc(-c2nnn[nH]2)cc1)N(CCC1CC1)c1sc2ccccc2c1Cl [Compound 635, N-(3-Chloro-benzo[b]thiophen-2-yl)-N-(2-cyclopropyl-ethyl)-4-(1H-tetrazol-5-yl)-benzenesulfonamide] | –
2 | 46 nM | 103% | O=S(=O)(c1ccc(-c2nnn[nH]2)cc1)N(CCC(F)(F)F)c1sc2ccccc2c1Cl [Compound 636, N-(3-Chloro-benzo[b]thiophen-2-yl)-N-(3,3,3-trifluoro-propyl)-4-(1H-tetrazol-5-yl)-benzenesulfonamide] | –
3 | 12.2 nM | 104% | Cc1c(N(CCC(F)(F)F)S(=O)(=O)c2ccc(-c3nsc(=O)[nH]3)cc2)sc2ccccc12 [Compound 637, N-(3-Methyl-benzo[b]thiophen-2-yl)-N-(3,3,3-trifluoro-propyl)-4-(5-oxo-4,5-dihydro-[1,2,4]thiadiazol-3-yl)-benzenesulfonamide] | –
4 | 11 nM | 103% | Cc1c(N(CCCCC(F)(F)F)S(=O)(=O)c2ccc(-c3nsc(=O)[nH]3)cc2)sc2ccccc12 [Compound 640, N-(3-Methyl-benzo[b]thiophen-2-yl)-N-(5,5,5-trifluoro-pentyl)-4-(5-oxo-4,5-dihydro-[1,2,4]thiadiazol-3-yl)-benzenesulfonamide] | –
5 | 14 nM | 103% | Cc1c(N(CCC2CC2)S(=O)(=O)c2ccc(-c3nsc(=O)[nH]3)cc2)sc2ccccc12 [Compound 641, N-(3-Methyl-benzo[b]thiophen-2-yl)-N-(cyclopropyl-ethyl)-4-(5-oxo-4,5-dihydro-[1,2,4]thiadiazol-3-yl)-benzenesulfonamide] | –
6 | 41 nM | 90% | O=c1[nH]c(-c2ccc(S(=O)(=O)N(CCC3CC3)c3cc4ccccc4s3)cc2)ns1 [Compound 642, N-(Benzo[b]thiophen-2-yl)-N-(cyclopropyl-ethyl)-4-(5-oxo-4,5-dihydro-[1,2,4]thiadiazol-3-yl)-benzenesulfonamide] | –
7 | 5 nM | 103% | CN(C)C1=C(N(CCC2CC2)S(=O)(=O)c2ccccc2)S(=O)(=O)c2ccccc21 [Compound 643, N-(2-Cyclopropylethyl)-N-(3-dimethylamino-1,1-dioxo-1H-benzo[b]thiophen-2-yl)-benzenesulfonamide] | –
8 | – | 63% | CNC1=C(N(CCC2CC2)S(=O)(=O)c2ccccc2)S(=O)(=O)c2ccccc21 [Compound 644, N-(2-Cyclopropylethyl)-N-(3-methylamino-1,1-dioxo-1H-benzo[b]thiophen-2-yl)-benzenesulfonamide] | –
9 | – | 20% | CN1CCN(C2=C(N(CCC3CC3)S(=O)(=O)c3ccccc3)S(=O)(=O)c3ccccc32)CC1 [Compound 645, N-(2-Cyclopropyl-ethyl)-N-[3-(4-methyl-piperazin-1-yl)-1,1-dioxo-1H-1λ^6-benzo[b]thiophen-2-yl]-benzenesulfonamide] | –
10 | – | 55% | NC1=C(N(CCC2CC2)S(=O)(=O)c2ccccc2)S(=O)(=O)c2ccccc21 [Compound 646, N-(3-Amino-1,1-dioxo-1H-benzo[b]thiophen-2-yl)-N-(2-cyclopropylethyl)-benzenesulfonamide] | –
11 | – | 21% | O=S1(=O)C(N(CCC2CC2)S(=O)(=O)c2ccccc2)=C(N2CCNCC2)c2ccccc21 [Compound 647, N-(2-Cyclopropyl-ethyl)-N-(1,1-dioxo-3-piperazin-1-yl-1H-1λ^6-benzo[b]thiophen-2-yl)-benzenesulfonamide] | –
12 | – | 62% | CNC1=C(N(Cc2ccc(F)c(C(F)(F)F)c2)S(=O)(=O)c2ccccc2)S(=O)(=O)c2ccccc21 [Compound 648, N-(4-Fluoro-3-trifluoromethyl-benzyl)-N-(3-methylamino-1,1-dioxo-1H-1λ^6-benzo[b]thiophen-2-yl)-benzenesulfonamide] | –
13 | – | 26% | CN1CCN(C2=C(N(Cc3ccc(F)c(C(F)(F)F)c3)S(=O)(=O)c3ccccc3)S(=O)(=O)c3ccccc32)CC1 [Compound 649, N-(4-Fluoro-3-trifluoromethyl-benzyl)-N-[3-(4-methyl-piperazin-1-yl)-1,1-dioxo-benzo[b]thiophen-2-yl]-benzenesulfonamide] | –
14 | 4 nM | 102% | Nc1ccc(S(=O)(=O)N(Cc2ccc(F)c(C(F)(F)F)c2)c2sc3ccccc3c2Br)cc1 [Compound 650, 4-Amino-N-(3-bromo-benzo[b]thiophen-2-yl)-N-(4-fluoro-3-trifluoromethyl-benzyl)-benzenesulfonamide] | –
15 | 6 nM | 103% | Nc1ccc(S(=O)(=O)N(Cc2ccc(F)c(C(F)(F)F)c2)c2sc3ccccc3c2Br)cc1Br [Compound 651, 4-Amino-3-bromo-N-(3-bromo-benzo[b]thiophen-2-yl)-N-(4-fluoro-3-trifluoromethyl-benzyl)-benzenesulfonamide] | –
16 | 85 nM | 102% | CS(=O)(=O)Nc1ccc(S(=O)(=O)N(Cc2ccc(F)c(C(F)(F)F)c2)c2cc3ccccc3s2)cc1 [Compound 652, N-(Benzo[b]thiophen-2-yl)-N-(4-fluoro-3-trifluoromethyl-benzyl)-4-methanesulfonylamino-benzenesulfonamide] | –
17 | 13 nM | 102% | Nc1ccc(S(=O)(=O)N(Cc2ccc(F)c(C(F)(F)F)c2)c2cc3ccccc3s2)cc1 [Compound 653, 4-Amino-N-(benzo[b]thiophen-2-yl)-N-(4-fluoro-3-trifluoromethyl-benzyl)-benzenesulfonamide] | –
18 | – | 56% | O=S(=O)(c1ccc(Br)cc1)N(CCC1CC1)c1cc2ccccc2s1 [Compound 654, N-(Benzo[b]thiophen-2-yl)-N-(2-cyclopropyl-ethyl)-4-bromo-benzenesulfonamide] | –
19 | – | 55% | O=S(=O)(c1ccc(Br)cc1)N(CCCCC(F)(F)F)c1cc2ccccc2s1 [Compound 655, N-(Benzo[b]thiophen-2-yl)-4-bromo-N-(5,5,5-trifluoro-pentyl)-benzenesulfonamide] | –
20 | 53.7 nM | 98% | CC(C)(O)c1c(N(CCCCC(F)(F)F)S(=O)(=O)c2ccc(Br)cc2)sc2ccccc12 [Compound 656, 4-Bromo-N-(3-(1-hydroxy-1-methyl-ethyl)-benzo[b]thiophen-2-yl)-N-(5,5,5-trifluoro-pentyl)-benzenesulfonamide] | –
21 | 14.1 nM | 100% | CS(=O)(=O)Nc1ccc(S(=O)(=O)N(Cc2ccc(F)c(C(F)(F)F)c2)c2sc3ccccc3c2Cl)cc1 [Compound 659, N-(3-Chloro-benzo[b]thiophen-2-yl)-N-(4-fluoro-3-trifluoromethyl-benzyl)-4-methanesulfonylamino-benzenesulfonamide] | –
22 | 11.2 nM | 100% | CS(=O)(=O)Nc1ccc(S(=O)(=O)N(Cc2ccc(F)c(C(F)(F)F)c2)c2sc3ccccc3c2Br)cc1 [Compound 660, N-(3-Bromo-benzo[b]thiophen-2-yl)-N-(4-fluoro-3-trifluoromethyl-benzyl)-4-methanesulfonylamino-benzenesulfonamide] | –
23 | 14.1 nM | 100% | CS(=O)(=O)Nc1ccc(S(=O)(=O)N(Cc2ccc(F)c(C(F)(F)F)c2)c2sc3ccccc3c2Br)cc1Br [Compound 661, 3-Bromo-N-(3-bromo-benzo[b]thiophen-2-yl)-N-(4-fluoro-3-trifluoromethyl-benzyl)-4-methanesulfonylamino-benzenesulfonamide] | –
24 | – | 50.1% | Cc1c(N(CCCCC(F)(F)F)S(=O)(=O)C(F)(F)F)sc2ccccc12 [Compound 662, C,C,C-Trifluoro-N-(3-methyl-benzo[b]thiophen-2-yl)-N-(5,5,5-trifluoro-pentyl)-methanesulfonamide] | –
25 | – | 17.1% | O=S(=O)(N(Cc1ccc(F)c(C(F)(F)F)c1)c1cc2ccccc2s1)C(F)(F)F [Compound 663, N-Benzo[b]thiophen-2-yl-N-(4-fluoro-3-trifluoromethyl-benzyl)-C,C,C-trifluoro-methanesulfonamide] | –
26 | – | 53.1% | Cc1c(N(Cc2ccc(F)c(C(F)(F)F)c2)S(=O)(=O)C(F)(F)F)sc2ccccc12 [Compound 664, C,C,C-Trifluoro-N-(4-fluoro-3-trifluoromethyl-benzyl)-N-(3-methyl-benzo[b]thiophen-2-yl)-methanesulfonamide] | –
27 | – | 27.9% | Cc1c(N(CCC2CC2)S(=O)(=O)C(F)(F)F)sc2ccccc12 [Compound 665, N-(2-Cyclopropyl-ethyl)-C,C,C-trifluoro-N-(3-methyl-benzo[b]thiophen-2-yl)-methanesulfonamide] | –
28 | 8.1 nM | 103% | Nc1ccc(S(=O)(=O)N(CCCCC(F)(F)F)c2sc3ccccc3c2Cl)cc1 [Compound 666, 4-Amino-N-(3-chloro-benzo[b]thiophen-2-yl)-N-(5,5,5-trifluoro-pentyl)-benzenesulfonamide] | –
29 | 30.1 nM | 103% | Nc1ccc(S(=O)(=O)N(CCCCC(F)(F)F)c2sc3ccccc3c2Cl)cc1Cl [Compound 667, 4-Amino-3-chloro-N-(3-chloro-benzo[b]thiophen-2-yl)-N-(5,5,5-trifluoro-pentyl)-benzenesulfonamide] | –

Row | Compound | IC50 | inhibition at 0.2 µM | % Inh @ 0.2 (μM)
30 | O=C(O)c1ccc(S(=O)(=O)N(CCC2CC2)c2cc3ccccc3s2)c(F)c1 [Compound 638, N-(3-Benzo[b]thiophen-2-yl)-N-(2-cyclopropyl-ethyl)-2-fluoro-4-carboxy-benzenesulfonamide] | 60 nM | – | 100%
31 | O=C(O)c1ccc(S(=O)(=O)N(CCC(F)(F)F)c2cc3ccccc3s2)c(F)c1 [Compound 639, N-(3-Benzo[b]thiophen-2-yl)-N-(3,3,3-trifluoro-propyl)-2-fluoro-4-carboxy-benzenesulfonamide] | 128 nM | – | 84%
